In patent publication US12114661B2, “Synergistically effective herbicide composition comprising metobromuron and clomazone” (BELCHIM CROP PROTECTION NV, priority 2018, dated 2024):

Columns and labels:
[1] = test system: Convolvolus arvensis; experiment: Example 1 field trial, herbicidal effect, tank mixture; type: in vivo; conditions: 28 DAA
[2] = test system: Hibiscus trionum; experiment: as above; type: in vivo; conditions: 28 DAA
[3] = test system: Setaria viridis; experiment: as above; type: in vivo; conditions: 28 DAA
[4] = test system: Amaranthus retroflexus; experiment: as above; type: in vivo; conditions: 49 DAA
[5] = test system: Echinochloa; experiment: as above; type: in vivo; conditions: 29 DAA
[6] = test system: Chenopodium album (CHEAL); experiment: Example 2 field trial, herbicidal effect, tank mixture; type: in vivo; conditions: 42-56 DAA
[7] = test system: Senecio vulgaris (SENVU); experiment: as above; type: in vivo; conditions: 42-56 DAA
[8] = test system: Chenopodium album (CHEAL); experiment: Example 3 field trial, herbicidal effect, tank mixture; type: in vivo; conditions: 42-56 DAA
[9] = test system: Merculiaris annua (MERAN); experiment: as above; type: in vivo; conditions: 42-56 DAA
[10] = test system: Veronica sp. (VERSS); experiment: as above; type: in vivo; conditions: 42-56 DAA
[11] = test system: Convolvolus arvensis; experiment: Example 4 field trial, herbicidal effect, ready-to-use formulation; type: in vivo; conditions: 44 DAA
[12] = test system: Cypurus; experiment: as above; type: in vivo; conditions: 35 DAA
[13] = test system: Solanum nigrum; experiment: as above; type: in vivo; conditions: 35 DAA
[14] = test system: Persicaria maculosa; experiment: as above; type: in vivo; conditions: 35 DAA
[15] = test system: Echinochloa crus galli; experiment: as above; type: in vivo; conditions: 35 DAA
[16] = test system: Urtica urens; experiment: as above; type: in vivo; conditions: 22 DAA
[17] = test system: Veronica persica; experiment: as above; type: in vivo; conditions: 55 DAA
[18] = test system: Chenopodium album; experiment: Example 5 field trial, herbicidal effect, ready-to-use formulation; type: in vivo; conditions: 41 DAA
[19] = test system: Galium aparine; experiment: as above; type: in vivo; conditions: 25 DAA
[20] = test system: Amaranthus retroflexus; experiment: as above; type: in vivo; conditions: 25 DAA
[21] = test system: Merculiaris annua; experiment: as above; type: in vivo; conditions: 41 DAA
[22] = test system: Polygonum aviculare; experiment: as above; type: in vivo; conditions: 38 DAA
[23] = test system: Solanum physalifolium; experiment: as above; type: in vivo; conditions: 38 DAA
[24] = test system: Persicaria maculate; experiment: as above; type: in vivo; conditions: 28 DAA
[25] = test system: Amaranthus retroflexus; experiment: Example 6 field trial, herbicidal effect, ready-to-use formulation; type: in vivo; conditions: 18 DAA
[26] = test system: Merculiaris annua; experiment: as above; type: in vivo; conditions: 18 DAA
[27] = test system: Persicaria laphatipholium; experiment: as above; type: in vivo; conditions: 25 DAA
[28] = test system: Solanum nigrum; experiment: as above; type: in vivo; conditions: 18 DAA
[29] = test system: Panonicum ulmi; experiment: as above; type: in vivo; conditions: CLZ 72 g a.c./ha; 42 DAA
[30] = as above; type: in vivo, Panonicum ulmi; conditions: MTB 1200 g a.c./ha; 42 DAA

CC1(C)CON(Cc2ccccc2Cl)C1=O [CLZ, 2-(2-chlorophenyl)methyl-4,4-dimethyl-3-isoxazolidinone]
h.e. (herbicidal effect) ([1]; CLZ 72 g a.c./ha): 46%
h.e. (herbicidal effect) ([2]; CLZ 72 g a.c./ha): 79%
h.e. (herbicidal effect) ([3]; CLZ 72 g a.c./ha): 86%
h.e. (herbicidal effect) ([4]; CLZ 72 g a.c./ha): 10%
h.e. (herbicidal effect) ([5]; CLZ 72 g a.c./ha): 57%
CLZ h.e. ([6]; CLZ 45 g a.c./ha): 6%
CLZ h.e. ([6]; CLZ 67.5 g a.c./ha): 43%
CLZ h.e. ([6]; CLZ 90 g a.c./ha): 53%
CLZ h.e. ([7]; CLZ 45 g a.c./ha): 5%
CLZ h.e. ([7]; CLZ 67.5 g a.c./ha): 40%
CLZ h.e. ([7]; CLZ 90 g a.c./ha): 39%
CLZ h.e. ([8]; CLZ 54 g a.c./ha): 46.7%
CLZ h.e. ([8]; CLZ 72 g a.c./ha): 56.7%
CLZ h.e. ([8]; CLZ 90 g a.c./ha): 63.3%
CLZ h.e. ([9]; CLZ 54 g a.c./ha): 43.3%
CLZ h.e. ([9]; CLZ 72 g a.c./ha): 50%
CLZ h.e. ([9]; CLZ 90 g a.c./ha): 23.3%
CLZ h.e. ([10]; CLZ 54 g a.c./ha): 43.3%
CLZ h.e. ([10]; CLZ 72 g a.c./ha): 60%
CLZ h.e. ([10]; CLZ 90 g a.c./ha): 16.7%
h.e. (herbicidal effect) ([11]; CLZ 36 g a.c./ha): 30%
h.e. (herbicidal effect) ([12]; CLZ 36 g a.c./ha): 67%
h.e. (herbicidal effect) ([13]; CLZ 36 g a.c./ha): 52%
h.e. (herbicidal effect) ([14]; CLZ 36 g a.c./ha): 28%
h.e. (herbicidal effect) ([15]; CLZ 36 g a.c./ha): 63%
h.e. (herbicidal effect) ([16]; CLZ 36 g a.c./ha): 0%
h.e. (herbicidal effect) ([17]; CLZ 36 g a.c./ha): 0%
h.e. (herbicidal effect) ([18]; CLZ 90 g a.c./ha): 28%
h.e. (herbicidal effect) ([19]; CLZ 90 g a.c./ha): 33%
h.e. (herbicidal effect) ([20]; CLZ 90 g a.c./ha): 10%
h.e. (herbicidal effect) ([21]; CLZ 90 g a.c./ha): 50%
h.e. (herbicidal effect) ([22]; CLZ 90 g a.c./ha): 78%
h.e. (herbicidal effect) ([23]; CLZ 90 g a.c./ha): 61%
h.e. (herbicidal effect) ([24]; CLZ 90 g a.c./ha): 80%
h.e. (herbicidal effect) ([25]; CLZ 72 g a.c./ha): 77%
h.e. (herbicidal effect) ([26]; CLZ 72 g a.c./ha): 60%
h.e. (herbicidal effect) ([27]; CLZ 72 g a.c./ha): 34%
h.e. (herbicidal effect) ([28]; CLZ 72 g a.c./ha): 66%
h.e. (herbicidal effect) [29]: 0%

CON(C)C(=O)Nc1ccc(Br)cc1 [MTB, 3-(4-bromophenyl)-1-methoxy-1-methylurea]
h.e. (herbicidal effect) ([1]; MTB 1200 g a.c./ha): 83%
h.e. (herbicidal effect) ([2]; MTB 1200 g a.c./ha): 81%
h.e. (herbicidal effect) ([3]; MTB 1200 g a.c./ha): 72%
h.e. (herbicidal effect) ([4]; MTB 1200 g a.c./ha): 50%
h.e. (herbicidal effect) ([5]; MTB 1200 g a.c./ha): 35%
MTB h.e. ([6]; MTB 500 g a.c./ha): 61%
MTB h.e. ([6]; MTB 1000 g a.c./ha): 69%
MTB h.e. ([6]; MTB 1500 g a.c./ha): 79%
MTB h.e. ([7]; MTB 500 g a.c./ha): 18%
MTB h.e. ([7]; MTB 1000 g a.c./ha): 34%
MTB h.e. ([7]; MTB 1500 g a.c./ha): 35%
MTB h.e. ([8]; MTB 600 g a.c./ha): 69.3%
MTB h.e. ([8]; MTB 1200 g a.c./ha): 93%
MTB h.e. ([8]; MTB 1800 g a.c./ha): 98.3%
MTB h.e. ([9]; MTB 600 g a.c./ha): 10%
MTB h.e. ([9]; MTB 1200 g a.c./ha): 78.3%
MTB h.e. ([9]; MTB 1800 g a.c./ha): 91%
MTB h.e. ([10]; MTB 600 g a.c./ha): 20%
MTB h.e. ([10]; MTB 1200 g a.c./ha): 35%
MTB h.e. ([10]; MTB 1800 g a.c./ha): 97%
h.e. (herbicidal effect) ([11]; MTB 400 g a.c./ha): 18%
h.e. (herbicidal effect) ([12]; MTB 400 g a.c./ha): 50%
h.e. (herbicidal effect) ([13]; MTB 400 g a.c./ha): 76%
h.e. (herbicidal effect) ([14]; MTB 400 g a.c./ha): 79%
h.e. (herbicidal effect) ([15]; MTB 400 g a.c./ha): 68%
h.e. (herbicidal effect) ([16]; MTB 400 g a.c./ha): 37%
h.e. (herbicidal effect) ([17]; MTB 400 g a.c./ha): 25%
h.e. (herbicidal effect) ([18]; MTB 1000 g a.c./ha): 75%
h.e. (herbicidal effect) ([19]; MTB 1000 g a.c./ha): 28%
h.e. (herbicidal effect) ([20]; MTB 1000 g a.c./ha): 70%
h.e. (herbicidal effect) ([21]; MTB 1000 g a.c./ha): 49%
h.e. (herbicidal effect) ([22]; MTB 1000 g a.c./ha): 66%
h.e. (herbicidal effect) ([23]; MTB 1000 g a.c./ha): 65%
h.e. (herbicidal effect) ([24]; MTB 1000 g a.c./ha): 43%
h.e. (herbicidal effect) ([25]; MTB 1200 g a.c./ha): 43%
h.e. (herbicidal effect) ([26]; MTB 1200 g a.c./ha): 40%
h.e. (herbicidal effect) ([27]; MTB 1200 g a.c./ha): 21%
h.e. (herbicidal effect) ([28]; MTB 1200 g a.c./ha): 31%
h.e. (herbicidal effect) [30]: 89%
